From patent US20240228510A1, “KRAS G12C INHIBITORS” (Mirati Therapeutics, Inc., priority 2021, published 2024) come the findings set out here.

Molecules are shown by their SMILES.

This experiment relates to KRas G12C. The experiment can be described thus: Inhibition of KRas G12C-mediated pERK in H358 cells (Phospho-ERK In-Cell Western). Conditions: Homo sapiens; NCI-H358 cells; 3 hours compound; pERK(Thr202/Tyr204) normalized to GAPDH; 4 parameter fit. In kind it is cell-based. The protocol:
The cellular inhibition of KRAs G12C by exemplary compounds of the present invention was determined by measuring the amount of a downstream marker of KRas activity, phosphorylated ERK (“Phospho-ERK”).
NCI-H358 cells (ATCC CRL-5807) express KRas G12C and were grown in RPMI medium supplemented with 10% fetal bovine serum, penicillin/streptomycin and 10 mM HEPES. Cells were plated in poly-D-Lysine coated 96-well plates at a concentration of 50,000 cells/well and allowed to attach for 8-12 hours. Diluted compounds were then added at a final concentration of 0.5% DMSO. After 3 hours, the medium was removed, 150 μL of 4% formaldehyde was added and the plates were incubated for 20 minutes. The plates were washed with PBS, and permeabilized using 150 μL of ice cold 100% methanol for 10 minutes. Non-specific antibody binding to the plates was blocked using 100 μL Licor Blocking Buffer (Li-Cor Biotechnology, Lincoln NE) for 1 hour at room temperature. Positive control samples and samples lacking cells were parallel processed with test samples as standards.
The amount Phospho-ERK was determined using an antibody specific for the phosphorylated form of ERK and compared to the amount of GAPDH. Primary antibodies used for detection were added as follows: Phospho-ERK (Cell Signaling cs9101) diluted 1:500 and GAPDH (Millipore MAB374) diluted 1:5000 in Licor block+0.05% Tween 20. The plates were incubated for 2 hours at room temperature. The plates were washed with PBS+0.05% Tween 20.
Secondary antibodies used to visualize primary antibodies were added as follows: Anti-rabbit-680 diluted 1:1000 and Anti-mouse-800 diluted 1:1000 in Licor Block+0.05% Tween 20 and incubated for 1 hour at room temperature. The plates were washed with PBS+0.05% Tween 20. A 100 μL aliquot of PBS was added to each well and the plates were read on a LICOR AERIUS plate reader.
The pERK(Thr202/Tyr204) signal was normalized with the GAPDH signal and percent of DMSO control values were calculated. IC50 values were generated using a 4 parameter fit of the dose response curve.
What is called IC50 is the concentration needed to halve the response being measured. Low values mean higher potency, high ones lower potency. `C=CC(=O)N1CCN(c2c(Cl)cnc3c(F)c(-c4cccc5ccc(F)c(Cl)c45)ncc23)CC1` [Example 7, 1-(4-(3-chloro-7-(8-chloro-7-fluoronaphthalen-1-yl)-8-fluoro-1,6-naphthyridin-4-yl)piperazin-1-yl)prop-2-en-1-one]: the IC50 was found to be 5910 nM.
Regarding `C#Cc1c(F)ccc2cccc(-c3ncc4c(N5C[C@@H]6[C@H]5CCN6C(=O)C=C)cc(C)nc4c3F)c12` [Example 14, 1-((1R,5R)-6-(7-(8-ethynyl-7-fluoronaphthalen-1-yl)-8-fluoro-2-methyl-1,6-naphthyridin-4-yl)-2,6-diazabicyclo[3.2.0]heptan-2-yl)prop-2-en-1-one], the IC50 was 21 nM.
`C#Cc1c(F)ccc2cccc(-c3ncc4c(N5C[C@@H]6[C@H]5CCN6C(=O)C=C)c(Cl)cnc4c3F)c12` [Example 13, 1-((1R,5R)-6-(3-chloro-7-(8-ethynyl-7-fluoronaphthalen-1-yl)-8-fluoro-1,6-naphthyridin-4-yl)-2,6-diazabicyclo[3.2.0]heptan-2-yl)prop-2-en-1-one] returned an IC50 of 31 nM.
For `C=CC(=O)N1CC2(C1)CN(c1snc3c(F)c(-c4cccc5ccc(F)c(Cl)c45)ncc13)C2` [Example 20, 1-(6-(6-(8-chloro-7-fluoronaphthalen-1-yl)-7-fluoroisothiazolo[4,3-c]pyridin-3-yl)-2,6-diazaspiro[3.3]heptan-2-yl)prop-2-en-1-one], half-maximal inhibition (IC50) was put at 7000 nM.
As for `C#Cc1cccc2cc(O)cc(-c3ncc4c(N5C[C@@H]6[C@H]5CCN6C(=O)C=C)snc4c3F)c12` [Example 18, 1-((1R,5R)-6-(6-(8-ethynyl-3-hydroxynaphthalen-1-yl)-7-fluoroisothiazolo[4,3-c]pyridin-3-yl)-2,6-diazabicyclo[3.2.0]heptan-2-yl)prop-2-en-1-one], the IC50 stood at 14 nM.
Compound `C=CC(=O)N(C)C1CN(c2snc3c(F)c(-c4cccc5ccc(F)c(Cl)c45)ncc23)C1` [Example 21, N-(1-(6-(8-chloro-7-fluoronaphthalen-1-yl)-7-fluoroisothiazolo[4,3-c]pyridin-3-yl)azetidin-3-yl)-N-methylacrylamide] registered an IC50 of 9000 nM.
To `C#Cc1c(F)ccc2cccc(-c3ncc4c(N5C[C@@H]6[C@H]5CCN6C(=O)C=C)c(OC)cnc4c3F)c12` [Example 6, 1-((1R,5R)-6-(7-(8-ethynyl-7-fluoronaphthalen-1-yl)-8-fluoro-3-methoxy-1,6-naphthyridin-4-yl)-2,6-diazabicyclo[3.2.0]heptan-2-yl)prop-2-en-1-one] belongs 22 nM.
Take `C=CC(=O)N1CC2(CCN(c3snc4c(F)c(-c5cccc6ccc(F)c(Cl)c56)ncc34)CC2)C1` [Example 22, 1-(7-(6-(8-chloro-7-fluoronaphthalen-1-yl)-7-fluoroisothiazolo[4,3-c]pyridin-3-yl)-2,7-diazaspiro[3.5]nonan-2-yl)prop-2-en-1-one]: the IC50 is 8000 nM.
To `C#Cc1c(F)ccc2cccc(-c3ncc4c(N5C[C@@H]6[C@H]5CCN6C(=O)C=C)ccnc4c3F)c12` [Example 11, 1-((1R,5R)-6-(7-(8-ethynyl-7-fluoronaphthalen-1-yl)-8-fluoro-1,6-naphthyridin-4-yl)-2,6-diazabicyclo[3.2.0]heptan-2-yl)prop-2-en-1-one] belongs 17 nM; to `C#Cc1c(F)ccc2cccc(-c3ncc4c(N5[C@@H]6CCN(C(=O)C=C)[C@@H]6[C@@H]5C)cc(OC)nc4c3F)c12` [Example 15, 1-((1R,5R,7S)-6-(7-(8-ethynyl-7-fluoronaphthalen-1-yl)-8-fluoro-2-methoxy-1,6-naphthyridin-4-yl)-7-methyl-2,6-diazabicyclo[3.2.0]heptan-2-yl)prop-2-en-1-one], 1440 nM; to `C=CC(=O)N1CC[C@@H]2[C@H]1CN2c1snc2c(F)c(-c3cccc4ccc(F)c(Cl)c34)ncc12` [Example 17, 1-((1R,5R)-6-(6-(8-chloro-7-fluoronaphthalen-1-yl)-7-fluoroisothiazolo[4,3-c]pyridin-3-yl)-2,6-diazabicyclo[3.2.0]heptan-2-yl)prop-2-en-1-one], 6000 nM.
Take `C=CC(=O)N1CCN(c2c(C#N)cnc3c(F)c(-c4cccc5ccc(F)c(Cl)c45)ncc23)CC1` [Example 10, 4-(4-acryloylpiperazin-1-yl)-7-(8-chloro-7-fluoronaphthalen-1-yl)-8-fluoro-1,6-naphthyridine-3-carbonitrile]: the IC50 worked out at 3680 nM.
`C#Cc1cccc2cccc(-c3ncc4c(N5C[C@@H]6[C@H]5CCN6C(=O)C=C)c(Cl)cnc4c3F)c12` [Example 3, 1-((1R,5R)-6-(3-chloro-7-(8-ethynylnaphthalen-1-yl)-8-fluoro-1,6-naphthyridin-4-yl)-2,6-diazabicyclo[3.2.0]heptan-2-yl)prop-2-en-1-one] gave an IC50 of 75 nM.
As for `C#Cc1c(F)ccc2cccc(-c3ncc4c(N5C[C@@H]6[C@H]5CCN6C(=O)C=C)c(C#N)cnc4c3F)c12` [Example 12, 4-((1R,5R)-2-acryloyl-2,6-diazabicyclo[3.2.0]heptan-6-yl)-7-(8-ethynyl-7-fluoronaphthalen-1-yl)-8-fluoro-1,6-naphthyridine-3-carbonitrile], the 50% inhibitory concentration (IC50) turned out to be 24 nM.
With `C=CC(=O)N1CCN(c2ccnc3c(F)c(-c4cccc5ccc(F)c(Cl)c45)ncc23)CC1` [Example 1, 1-(4-(7-(8-chloro-7-fluoronaphthalen-1-yl)-8-fluoro-1,6-naphthyridin-4-yl)piperazin-1-yl)prop-2-en-1-one], the concentration for half-maximal inhibition (IC50) was determined as 2740 nM.
The figure for `C=CC(=O)N1CCN(c2c(OC)cnc3c(F)c(-c4cccc5ccc(F)c(Cl)c45)ncc23)CC1` [Example 9, 1-(4-(7-(8-chloro-7-fluoronaphthalen-1-yl)-8-fluoro-3-methoxy-1,6-naphthyridin-4-yl)piperazin-1-yl)prop-2-en-1-one] is 9000 nM.
Consider `C=CC(=O)N1CCN(c2c(F)cnc3c(F)c(-c4cccc5ccc(F)c(Cl)c45)ncc23)CC1` [Example 2, 1-(4-(7-(8-chloro-7-fluoronaphthalen-1-yl)-3,8-difluoro-1,6-naphthyridin-4-yl)piperazin-1-yl)prop-2-en-1-one], for which the 50% inhibitory concentration (IC50) amounted to 3050 nM.
The compound `C#Cc1c(F)ccc2cccc(-c3ncc4c(N5[C@@H]6CCN(C(=O)C=C)[C@@H]6[C@@H]5C)cc(C)nc4c3F)c12` [Example 16, 1-((1R,5R,7S)-6-(7-(8-ethynyl-7-fluoronaphthalen-1-yl)-8-fluoro-2-methyl-1,6-naphthyridin-4-yl)-7-methyl-2,6-diazabicyclo[3.2.0]heptan-2-yl)prop-2-en-1-one] had an IC50 of 73 nM.
In turn, `C=CC(=O)N1CC[C@@H]2[C@H]1CN2c1c(Cl)cnc2c(F)c(-c3cccc4ccc(F)c(Cl)c34)ncc12` [Example 4, 1-((1R,5R)-6-(3-chloro-7-(8-chloro-7-fluoronaphthalen-1-yl)-8-fluoro-1,6-naphthyridin-4-yl)-2,6-diazabicyclo[3.2.0]heptan-2-yl)prop-2-en-1-one] came in with an IC50 of 169 nM.
With `C=CC(=O)N1CCN(c2c(C)cnc3c(F)c(-c4cccc5ccc(F)c(Cl)c45)ncc23)CC1` [Example 5, 1-(4-(7-(8-chloro-7-fluoronaphthalen-1-yl)-8-fluoro-3-methyl-1,6-naphthyridin-4-yl)piperazin-1-yl)prop-2-en-1-one], the concentration for half-maximal inhibition (IC50) was determined as 5000 nM.
With `C#Cc1cccc2cccc(-c3ncc4c(N5C[C@@H]6[C@H]5CCN6C(=O)C=C)snc4c3F)c12` [Example 19, 1-((1R,5R)-6-(6-(8-ethynylnaphthalen-1-yl)-7-fluoroisothiazolo[4,3-c]pyridin-3-yl)-2,6-diazabicyclo[3.2.0]heptan-2-yl)prop-2-en-1-one], half-maximal inhibition (IC50) required 748 nM.
In turn, `C#Cc1cccc2cc(O)cc(-c3ncc4c(N5C[C@@H]6[C@H]5CCN6C(=O)C=C)c(Cl)cnc4c3F)c12` [Example 8, 1-((1R,5R)-6-(3-chloro-7-(8-ethynyl-3-hydroxynaphthalen-1-yl)-8-fluoro-1,6-naphthyridin-4-yl)-2,6-diazabicyclo[3.2.0]heptan-2-yl)prop-2-en-1-one] came in with a half-inhibitory concentration (IC50) of 1 nM.
